{
  "source": "paper PMC6886798",
  "about": "“Expression of myeloid Src-family kinases is associated with poor prognosis in AML and influences Flt3-ITD kinase inhibitor acquired resistance” (PLoS ONE, 2019)",
  "key": {"Hck T338M": {"target": "T1, Hck T338M (Homo sapiens, UniProt P08631, T333M)", "T1 construct": "Recombinant near-full-length kinases, consisting of the SH2, SH3 and kinase domains plus the negative regulatory tail; made in house; host or cells: E. coli BL21Star (DE3), co-expressed with Csk and PTP1B", "T1 sequence (P08631 78-526 T333M limits assumed)": "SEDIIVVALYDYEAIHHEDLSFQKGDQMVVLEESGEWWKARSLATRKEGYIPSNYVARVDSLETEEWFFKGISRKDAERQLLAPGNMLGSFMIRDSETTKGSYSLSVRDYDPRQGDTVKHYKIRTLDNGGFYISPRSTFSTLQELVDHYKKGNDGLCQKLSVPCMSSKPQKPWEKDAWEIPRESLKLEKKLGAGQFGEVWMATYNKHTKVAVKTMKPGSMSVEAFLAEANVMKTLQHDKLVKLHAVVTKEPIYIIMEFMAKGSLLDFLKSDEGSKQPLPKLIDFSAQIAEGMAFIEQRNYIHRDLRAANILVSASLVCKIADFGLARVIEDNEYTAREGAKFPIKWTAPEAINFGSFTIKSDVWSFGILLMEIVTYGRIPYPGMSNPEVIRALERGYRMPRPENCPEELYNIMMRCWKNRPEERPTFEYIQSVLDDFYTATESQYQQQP", "experiment": "Z'-LYTE in vitro kinase assay", "format": "biochemical"}, "Fgr T338M": {"target": "T2, Fgr T338M (Homo sapiens, UniProt P09769, T334M)", "T2 construct": "Recombinant near-full-length kinases, consisting of the SH2, SH3 and kinase domains plus the negative regulatory tail; made in house; host or cells: E. coli BL21Star (DE3), co-expressed with Csk and PTP1B", "experiment": "Z'-LYTE in vitro kinase assay", "format": "biochemical", "experimental": "Assays were performed in quadruplicate in 384-well low volume, non-binding, black polystyrene microplates (Corning) according to the manufacturer’s instructions. Briefly, this assay measures phosphorylation of the Tyr2 peptide substrate which is tagged with coumarin and fluorescein on its N- and C-termini, respectively, to form a FRET pair. After the kinase reaction, a development step involves site-specific proteolytic cleavage of the unphosphorylated but not the phosphorylated peptide. […] Kinase reactions were run in 50 mM HEPES, pH 7.5, 10 mM MgCl2, 1 mM EGTA, and 0.01% BRIJ-35 (buffer supplied by the manufacturer). […] Following incubation for 1 h at ambient temperature, reactions were quenched by addition of the development protease, and coumarin and fluorescein fluorescence were measured 1 h later on a Molecular Devices SpectraMax M5 plate reader. […] For experiments with inhibitors, compounds were preincubated with kinase for 30 min prior to initiation of the reaction by the addition of ATP."}, "[1]": {"tested_on": "TF-1/FLT3-ITD + Fgr-T338L cells", "experiment": "CellTiter-Blue cell viability", "format": "cell-based, human", "procedure": "(§1) Full-length cDNA clones of each kinase were subcloned into the retroviral expression vectors pMSCV-neo or pMSCV-puro (Clontech). High-titer retroviral stocks were produced in 293T cells co-transfected with each pMSCV construct and an amphotropic packaging vector. TF-1 cells (10^6) were resuspended in 5.0 mL of undiluted viral supernatant and centrifuged at 1,000 × g for 4 h at 18 °C in the presence of 4 μg/mL Polybrene (Sigma-Aldrich) to enhance viral transduction. Forty-eight hours after infection, the cells began a two-week selection period with 400 μg/ml G-418 (neo vectors) or 3 μg/mL puromycin (puro vectors). Following selection, cells were maintained with 200 μg/ml G418 or 1 μg/mL puromycin. For double transduction experiments, TF-1 cells were first infected with the pMSCV-neo-Flt3-ITD virus, selected with G418, followed by the pMSCV-puro virus carrying Hck or Fgr and puromycin selection. All TF-1 cell populations that expressed Flt3-ITD (including inhibitor-resistant mutants) proliferated in a GM-CSF-independent manner, and were therefore subcultured in the absence of GM-CSF.\n(§2) Cells were seeded at 10^5 per mL in the presence or absence of inhibitors with DMSO as carrier solvent (0.1% final). Cell viability was assessed using the CellTiter-Blue reagent according to the manufacturer’s instructions (Promega). Fluorescence intensity, which correlates directly with viable cell number, was measured using a SpectraMax M5 microplate reader. Each experiment included three technical replicates per condition, and each experiment was repeated at least three times."}, "[2]": {"tested_on": "TF-1/FLT3-ITD + Fgr-T338M cells", "experiment": "CellTiter-Blue cell viability", "format": "cell-based, human", "procedure": "as §1, §2"}, "[3]": {"tested_on": "TF-1/Flt3-ITD + Fgr cells", "experiment": "CellTiter-Blue cell viability", "format": "cell-based, human", "conditions": "Fig 3; Flt3-ITD: WT; SFK: Fgr; 72 hours; read-out: IC50, nM (growth inhibition)", "procedure": "as §1, §2"}, "[4]": {"tested_on": "TF-1/Flt3-ITD + Hck cells", "experiment": "CellTiter-Blue cell viability", "format": "cell-based, human", "conditions": "Fig 3; Flt3-ITD: WT; SFK: Hck; 72 hours; read-out: IC50, nM (growth inhibition)", "procedure": "as §1, §2"}, "[5]": {"tested_on": "TF-1/Flt3-ITD D835Y + Hck cells", "experiment": "CellTiter-Blue cell viability", "format": "cell-based, human", "conditions": "Fig 3, SFK: Hck, 72 hours, read-out: IC50, nM (growth inhibition)", "procedure": "as §1, §2"}, "[6]": {"tested_on": "TF-1/Flt3-ITD N676S + Fgr cells", "experiment": "CellTiter-Blue cell viability", "format": "cell-based, human", "conditions": "S9 Fig, 48 h", "procedure": "as §1, §2"}, "[7]": {"tested_on": "TF-1/Flt3-ITD N676S + Hck cells", "experiment": "CellTiter-Blue cell viability", "format": "cell-based, human", "conditions": "S9 Fig, 48 h", "procedure": "as §1, §2"}, "[8]": {"tested_on": "TF-1/Flt3-ITD N676S cells", "experiment": "CellTiter-Blue cell viability", "format": "cell-based, human", "procedure": "as §1, §2"}, "TF-1/Flt3-ITD cells": {"tested_on": "TF-1/Flt3-ITD cells", "experiment": "CellTiter-Blue cell viability", "format": "cell-based, human", "conditions": "72 hours", "procedure": "as §1, §2"}, "[9]": {"tested_on": "MOLM13 R3 (A-419259-resistant population)", "experiment": "CellTiter-Blue cell viability", "format": "cell-based, human", "procedure": "as §2, with “Cell” for “Cells were seeded at 10^5 per mL in the presence or absence of inhibitors with DMSO as carrier solvent (0.1% final). Cell”, “times. […] Viability of each cell population was measured three times per week using the CellTiter-Blue assay.” for “times.”"}, "[10]": {"tested_on": "MOLM14 R1 (A-419259-resistant population)", "experiment": "CellTiter-Blue cell viability", "format": "cell-based, human", "procedure": "as §2, with “Cell” for “Cells were seeded at 10^5 per mL in the presence or absence of inhibitors with DMSO as carrier solvent (0.1% final). Cell”, “times. […] Viability of each cell population was measured three times per week using the CellTiter-Blue assay.” for “times.”"}, "[11]": {"tested_on": "MOLM14 R2 (A-419259-resistant population)", "experiment": "CellTiter-Blue cell viability", "format": "cell-based, human", "procedure": "as §2, with “Cell” for “Cells were seeded at 10^5 per mL in the presence or absence of inhibitors with DMSO as carrier solvent (0.1% final). Cell”, “times. […] Viability of each cell population was measured three times per week using the CellTiter-Blue assay.” for “times.”"}, "[12]": {"tested_on": "MOLM14 R3 (A-419259-resistant population)", "experiment": "CellTiter-Blue cell viability", "format": "cell-based, human", "procedure": "as §2, with “Cell” for “Cells were seeded at 10^5 per mL in the presence or absence of inhibitors with DMSO as carrier solvent (0.1% final). Cell”, “times. […] Viability of each cell population was measured three times per week using the CellTiter-Blue assay.” for “times.”"}, "[13]": {"tested_on": "MV4-11 R2 (A-419259-resistant population)", "experiment": "CellTiter-Blue cell viability", "format": "cell-based, human", "procedure": "as §2, with “Cell” for “Cells were seeded at 10^5 per mL in the presence or absence of inhibitors with DMSO as carrier solvent (0.1% final). Cell”, “times. […] Viability of each cell population was measured three times per week using the CellTiter-Blue assay.” for “times.”"}, "[14]": {"tested_on": "MV4-11 R3 (A-419259-resistant population)", "experiment": "CellTiter-Blue cell viability", "format": "cell-based, human", "procedure": "as §2, with “Cell” for “Cells were seeded at 10^5 per mL in the presence or absence of inhibitors with DMSO as carrier solvent (0.1% final). Cell”, “times. […] Viability of each cell population was measured three times per week using the CellTiter-Blue assay.” for “times.”"}, "[15]": {"tested_on": "Flt3-ITD N676S in TF-1 cells", "experiment": "Flt3 immunoprecipitation, anti-phosphotyrosine immunoblot", "format": "cell-based, human", "conditions": "vs Flt3-ITD; overnight", "procedure": "Immunoprecipitation reactions were incubated overnight at 4 °C."}, "468 kinases": {"target": "468 kinases", "experiment": "KINOMEscan scanMAX profile, overall selectivity", "format": "binding, human", "conditions": "1 μM; 468 kinase targets"}, "EGFR(L747-T751del,Sins)": {"tested_on": "EGFR(L747-T751del,Sins)", "experiment": "KINOMEscan", "format": "binding, human", "conditions": "1.0 µM", "procedure": "(§3) Kinase retention to the immobilized ligand is then measured using quantitative real-time PCR for each kinase-specific DNA barcode."}, "FLT3(ITD,D835V)": {"tested_on": "FLT3(ITD,D835V)", "experiment": "KINOMEscan", "format": "binding, human", "conditions": "1.0 µM", "procedure": "as §3"}, "HCK": {"target": "T3, HCK (Homo sapiens, UniProt P08631)", "T3 construct": "purchased Eurofins/DiscoverX KINOMEscan scanMAX", "T3 sequence (P08631 whole entry)": "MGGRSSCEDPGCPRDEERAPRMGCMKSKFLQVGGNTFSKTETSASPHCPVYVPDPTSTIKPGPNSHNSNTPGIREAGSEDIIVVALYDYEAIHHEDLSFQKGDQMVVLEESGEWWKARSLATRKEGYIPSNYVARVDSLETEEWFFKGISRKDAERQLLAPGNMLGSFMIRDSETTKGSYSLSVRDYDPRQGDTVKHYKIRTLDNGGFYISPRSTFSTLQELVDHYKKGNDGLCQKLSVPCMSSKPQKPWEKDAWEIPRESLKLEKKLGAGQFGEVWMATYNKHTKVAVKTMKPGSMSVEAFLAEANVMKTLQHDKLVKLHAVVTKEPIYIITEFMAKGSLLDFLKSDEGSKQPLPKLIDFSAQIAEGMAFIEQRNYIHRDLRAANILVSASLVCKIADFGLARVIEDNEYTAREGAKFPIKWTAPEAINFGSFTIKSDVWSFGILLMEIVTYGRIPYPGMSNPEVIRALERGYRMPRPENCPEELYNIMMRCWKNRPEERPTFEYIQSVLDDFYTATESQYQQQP", "experiment": "KINOMEscan", "format": "binding", "conditions": "1.0 µM"}, "VEGFR2": {"target": "T4, VEGFR2 (Homo sapiens, UniProt P35968)", "T4 construct": "DNA tag (qPCR barcode); purchased Eurofins/DiscoverX KINOMEscan scanMAX", "T4 sequence (P35968 20-1356)": "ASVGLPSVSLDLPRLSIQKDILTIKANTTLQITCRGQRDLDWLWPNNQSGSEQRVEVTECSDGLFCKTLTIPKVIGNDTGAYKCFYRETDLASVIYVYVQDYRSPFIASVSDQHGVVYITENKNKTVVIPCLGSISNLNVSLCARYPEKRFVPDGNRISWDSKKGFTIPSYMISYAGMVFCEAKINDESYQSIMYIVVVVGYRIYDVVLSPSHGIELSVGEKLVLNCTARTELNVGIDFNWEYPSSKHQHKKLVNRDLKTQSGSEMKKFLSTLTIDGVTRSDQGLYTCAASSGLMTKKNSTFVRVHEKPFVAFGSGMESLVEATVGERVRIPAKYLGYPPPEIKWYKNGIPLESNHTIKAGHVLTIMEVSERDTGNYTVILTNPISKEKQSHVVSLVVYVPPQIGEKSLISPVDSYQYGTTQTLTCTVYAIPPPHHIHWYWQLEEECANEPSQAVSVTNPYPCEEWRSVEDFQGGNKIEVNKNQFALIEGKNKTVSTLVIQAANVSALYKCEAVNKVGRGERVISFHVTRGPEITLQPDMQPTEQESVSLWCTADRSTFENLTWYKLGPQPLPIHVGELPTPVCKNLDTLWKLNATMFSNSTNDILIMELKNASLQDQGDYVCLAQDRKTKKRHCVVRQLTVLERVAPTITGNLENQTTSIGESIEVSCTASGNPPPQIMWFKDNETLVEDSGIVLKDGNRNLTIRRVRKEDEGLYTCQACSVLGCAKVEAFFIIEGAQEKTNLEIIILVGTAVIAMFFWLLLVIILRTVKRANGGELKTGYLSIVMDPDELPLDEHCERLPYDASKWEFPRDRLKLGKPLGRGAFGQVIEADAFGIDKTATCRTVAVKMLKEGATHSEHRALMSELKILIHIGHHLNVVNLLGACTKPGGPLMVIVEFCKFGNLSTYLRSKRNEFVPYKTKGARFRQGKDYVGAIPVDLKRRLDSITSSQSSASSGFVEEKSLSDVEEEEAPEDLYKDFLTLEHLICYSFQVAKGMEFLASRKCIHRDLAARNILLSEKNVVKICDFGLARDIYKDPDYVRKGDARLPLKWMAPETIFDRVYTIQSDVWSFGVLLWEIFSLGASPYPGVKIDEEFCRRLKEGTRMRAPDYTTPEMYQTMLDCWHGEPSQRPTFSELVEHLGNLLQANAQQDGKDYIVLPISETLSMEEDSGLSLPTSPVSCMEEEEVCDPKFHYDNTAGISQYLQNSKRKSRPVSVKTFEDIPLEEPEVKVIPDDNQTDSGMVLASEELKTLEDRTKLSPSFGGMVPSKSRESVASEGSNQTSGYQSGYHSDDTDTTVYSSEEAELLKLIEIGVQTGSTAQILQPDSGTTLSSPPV", "experiment": "KINOMEscan", "format": "binding", "conditions": "1.0 µM"}, "[16]": {"conditions": "read-out: A-419259 Sensitivity (IC50, nM) Initial, mean ± SE (n = 3)"}, "[17]": {"conditions": "read-out: A-419259 Sensitivity (IC50, nM) Post-holiday, after 4 weeks passage in the absence of inhibitor, mean ± SE (n = 3)"}},
  "note": "Like-named read-outs stand apart in the source and are kept apart here.",
  "data": [
    {"smiles": "CN1CCN(C2CCC(n3cc(-c4ccc(Oc5ccccc5)cc4)c4c(N)ncnc43)CC2)CC1", "note": "(stereo not shown) [A-419259]", "values": [
      {"measurement": "reduction of kinase sensitivity to A-419259", "setting": "Hck T338M; Hck gatekeeper threonine to methionine, vs wild-type", "value": 2, "unit": "fold"},
      {"measurement": "IC50", "setting": "Hck T338M; read-out: A-419259 IC50, Fig 5B, Hck T338M, ATP at Km, mean ± SE, three independent determinations", "value": "94.9 ± 1.1", "unit": "nM"},
      {"measurement": "resistance to A-419259", "setting": "Fgr T338M; Fgr gatekeeper methionine substitution, vs wild-type", "value": 2.5, "unit": "fold"},
      {"measurement": "IC50", "setting": "Fgr T338M; read-out: A-419259 IC50, Fig 5B, Fgr T338M, ATP at Km, mean ± SE, three independent determinations", "value": "160.6 ± 1.1", "unit": "nM"},
      {"measurement": "resistance to the inhibitor in cells", "setting": "[1]; Fgr T338L as printed", "value": "about 3 fold"},
      {"measurement": "IC50", "setting": "[1]; Fig 6B, TF-1/FLT3-ITD + Fgr-T338L, 72 hours", "value": "> 1000", "unit": "nM"},
      {"measurement": "resistance to the inhibitor in cells", "setting": "[2]", "value": "about 3 fold"},
      {"measurement": "IC50", "setting": "[3]", "value": 22.6, "unit": "nM"},
      {"measurement": "IC50", "setting": "[4]", "value": 15.4, "unit": "nM"},
      {"measurement": "IC50", "setting": "[5]", "value": "> 100", "unit": "nM"},
      {"measurement": "IC50", "setting": "[6]", "value": 173, "unit": "nM"},
      {"measurement": "IC50", "setting": "[7]", "value": 129, "unit": "nM"},
      {"measurement": "IC50", "setting": "[8]; Fig 9A, 72 hours, read-out: IC50 (growth arrest)", "value": 176, "unit": "nM"},
      {"measurement": "IC50", "setting": "[8]; S9 Fig, N676S control, 48 h, read-out: IC50 (cell viability)", "value": 89.1, "unit": "nM"},
      {"measurement": "IC50", "setting": "TF-1/Flt3-ITD cells; Fig 3, Flt3-ITD: WT, SFK: none, read-out: IC50, nM (growth inhibition)", "value": 18.2, "unit": "nM"},
      {"measurement": "IC50", "setting": "TF-1/Flt3-ITD cells; Fig 9A, control TF-1/Flt3-ITD cells, read-out: IC50 (growth arrest)", "value": 26, "unit": "nM"},
      {"measurement": "IC50", "setting": "[9]; [16]", "value": "473 ± 53.9", "unit": "nM"},
      {"measurement": "IC50", "setting": "[9]; [17]", "value": "436 ± 107", "unit": "nM"},
      {"measurement": "IC50", "setting": "[10]; [16]", "value": "187 ± 20.8", "unit": "nM"},
      {"measurement": "IC50", "setting": "[10]; [17]", "value": "283 ± 84.2", "unit": "nM"},
      {"measurement": "IC50", "setting": "[11]; [16]", "value": "193 ± 51.4", "unit": "nM"},
      {"measurement": "IC50", "setting": "[11]; [17]", "value": "326 ± 38.4", "unit": "nM"},
      {"measurement": "IC50", "setting": "[12]; [16]", "value": "213 ± 73.7", "unit": "nM"},
      {"measurement": "IC50", "setting": "[12]; [17]", "value": "178 ± 46.1", "unit": "nM"},
      {"measurement": "IC50", "setting": "[13]; [16]", "value": "410 ± 136", "unit": "nM"},
      {"measurement": "IC50", "setting": "[13]; [17]", "value": "597 ± 76.3", "unit": "nM"},
      {"measurement": "IC50", "setting": "[14]; [16]", "value": "125 ± 7.3", "unit": "nM"},
      {"measurement": "IC50", "setting": "[14]; [17]", "value": "91.6 ± 15.6", "unit": "nM"},
      {"measurement": "sensitivity of phosphotyrosine content to A-419259", "setting": "[15]", "value": "significantly reduced sensitivity"},
      {"measurement": "kinase interactions", "setting": "468 kinases", "value": 19},
      {"measurement": "% Control", "setting": "EGFR(L747-T751del,Sins)", "value": 16, "unit": "%"},
      {"measurement": "% Control", "setting": "FLT3(ITD,D835V)", "value": 30, "unit": "%"},
      {"measurement": "% Control", "setting": "HCK", "value": 1.9, "unit": "%"},
      {"measurement": "% Control", "setting": "VEGFR2", "value": 24, "unit": "%"}
    ]}
  ]
}
